Measured values reported in US7524487B2, “Compositions and methods for modulating interleukin-10” (University of Maryland, priority 2005, dated 2009).
Read-outs that look alike come from different tables or passages of the source.

Assays:
BMMφ = assay: Cytokine ELISA (IL-10, IL-12) after HDAC inhibitor treatment of BMMφ stimulated with LPS+IC; type: cell-based, mice; conditions: TSA added to BMMφ for 1 hr, washed, then 10 ng/ml LPS+IC for 6 hrs
Procedure: FIG. 21 is a graph showing cytokine production following histone deacetylation. TSA was added to BMMφ for 1 hr and the cells were then washed with warmed medium before stimulation with 10 ng/ml LPS+IC. After LPS+IC stimulation for 6 hrs, the supernatants were collected and IL-10 and IL-12 were measured by ELISA. Results shown are one representative from two independent experiments conducted in triplicate (mean±SD).
To further examine histone acetylation, macrophages were treated with increasing doses of the HDAC inhibitor, TSA, prior to stimulation. IL-10 levels were measured 6 hrs later. […] This observation is consistent with the hypothesis that an increase in histone H3 acetylation was not a pre-requisite for IL-10 gene transcription following stimulation by LPS+IC.

IL-10 promoter = assay: ChIP of histone H3 phosphorylation at the IL-10 promoter in stimulated BMMφ; type: cell-based, mice; conditions: BMMφ pretreated 30 min with PD98059 10 μM or SB203580 1 μM, then IgG-OVA + LPS for 40 min
Procedure: BMMφ were stimulated with medium (open bars), LPS (solid bars) or E-IgG+LPS (striped bars) for 15 minutes (A), or the indicated times (B) and ChIP assays were carried out as described in Materials and Methods. Immunoprecipitations utilized antibodies specific to phospho-H3 (left panel) or acetyl-H3 (right panel). A. conventional RT-PCR and B. real time PCR were carried out using IL-10 promoter or IL-12p40 promoter specific primers. For real time PCR, samples were normalized to input DNA controls.
Cells were pretreated with PD98059 (10 μM), SB203580 (1 μM) or medium for 30 min then stimulated with medium (open bar), IgG-OVA (dotted bar), LPS (solid bar), or both (striped bars) for 40 min. ChIP analysis was carried out using a phospho-H3 specific Ab. A. Conventional RT-PCR was carried out using IL-10 promoter or IL-12p40 promoter specific primers. B. Real time PCR analysis of samples obtained in A. Samples were normalized to input DNA controls.
FIG. 22 is a graph showing Inhibition of histone modifications by blocking ERK. BMMφ were pre-treated with PD98059 (15 μM) (solid bars) or drug vehicle (open bars) for 1 hour and then stimulated with IC plus LPS (10 ng/mL). Cross-linked chromatin fragments were immunoprecipitated with antibody to phosphorylated histone H3 at Ser 10 or antibody to Sp1. The DNA was purified and analyzed for the presence of IL-10 promoter sequences corresponding to nucleosome −2 by QRT-PCR. The data were plotted graphically as the percentage change relative to drug vehicle (IC/LPS) at 30 min post-stimulation for histone H3 phosphorylation, and at 45 min post-stimulation for Sp1 recruitment. One representative from two independent experiments is presented.
Chromatin immunoprecipitation (ChIP). ChIPs were carried out using the ChIP Assay kit following the manufacturer's protocol (Upstate USA, Inc., Lake Placid, N.Y.). Briefly, 1×10^6 BMMφ were plated overnight in 6-well plates. Cells were stimulated as described in Figure Legends then fixed for 10 min at 37° C. in paraformaldehyde (1% final concentration). […]

[1] = tested on: bone marrow derived macrophages (BMMφ); assay: Cytokine ELISA on supernatants of stimulated bone marrow derived macrophages (LPS ± E-IgG)
ERK1/2 = assay: Western blot of ERK activation (phospho-ERK) in macrophages; type: cell-based, mice; conditions: macrophages stimulated with LPS 10 ng/ml plus the agent, versus LPS alone
Procedure: FIG. 1 is a Western blot showing the kinetics of MAPK activation in bone marrow derived macrophages (BMMφ) stimulated with (LPS) alone or LPS in combination with E-IgG, an immune complex that ligates the FcγR. BMMφ were stimulated with LPS (10 ng/ml)±E-IgG. Cells were then lysed at the indicated times and equal amounts of whole cell lysates were separated by SDS PAGE and analyzed by Western blotting using phospho-specific Abs to ERK1/2, p38 or JNK. Total ERK1/2 (bottom panel) was used as the loading control.
Western blots. 2×10^6 BMMφper well were plated overnight in 60 mm culture dishes. […]
Cells were lysed at various indicated times and ERK activation was measured by Western Blot using antibodies to phosphorylated ERK (FIG. 9B).
ERK activation was analyzed at the indicated times by Western Blot, using antibodies to phosphorylated ERK.

Molecule: CC(/C=C/C(=O)NO)=C\[C@@H](C)C(=O)c1ccc(N(C)C)cc1 [TSA, Trichostatin A]
- IL-10 production (ELISA) (BMMφ): failed to influence
- IL-12 production (ELISA) (BMMφ): substantially inhibit

Molecule: C[S+]([O-])c1ccc(-c2nc(-c3ccncc3)c(-c3ccc(F)cc3)[nH]2)cc1 (centres unmarked) [SB203580]
- histone H3 phosphorylation at the IL-10 promoter induced by immune complex (ChIP) (IL-10 promoter): decreasing it substantially, but not reducing it to background levels
- IL-10 secretion (ELISA) ([1]; BMMφ pretreated 30 min with PD98059 10 μM, SB203580 1 μM or JNK inhibitory peptide 1 μM, then LPS 10 ng/ml ± E-IgG, supernatants after 20 h): substantial inhibition
- IL-12 (p40) production (ELISA) ([1]; BMMφ pretreated 30 min with inhibitor, then LPS 10 ng/ml ± E-IgG, 20 h): Neither of these inhibitors decreased
- LPS-induced IL-10 production ([1]; BMMφ, LPS 10 ng/ml alone, 20 h, inhibitor pretreatment or 100 nM siRNA): prevented

Molecule: CCCCCCCCCCCCCC(=O)O[C@@H]1[C@@H](C)[C@@]2(O)[C@@H](C=C(CO)C[C@]3(O)C(=O)C(C)=C[C@@H]23)[C@@H]2C(C)(C)[C@]12OC(C)=O [PMA, phorbol 12-myristate 13-acetate]
- ERK activation (phosphorylated ERK, Western blot) (ERK1/2): activated
- IL-10 production (ELISA) of LPS-stimulated macrophages in presence of the ERK activator [1]: induced

B1: CSF-1: colony stimulating factor-1, an ERK activating agent identified by the screening method (protein, UniProt P09603 33-554, looked up)
Macrophage colony-stimulating …: EEVSEYCSHMIGSGHLQSLQRLIDSQMETSCQITFEFVDQEQLKDPVCYLKKAFLLVQDIMEDTMRFRDNTPNAIAIVQLQELSLRLKSCFTKDYEEHDKACVRTFYETPLQLLEKVKNVFNETKNLLDKDWNIFSKNCNNSFAECSSQDVVTKPDCNCLYPKAIPSSDPASVSPHQPLAPSMAPVAGLTWEDSEGTEGSSLLPGEQPLHTVDPGSAKQRPPRSTCQSFEPPETPVVKDSTIGGSPQPRPSVGAFNPGMEDILDSAMGTNWVPEEASGEASEIPVPQGTELSPSRPGGGSMQTEPARPSNFLSASSPLPASAKGQQPADVTGTALPRVGPVRPTGQDWNHTPQKTDHPSALLRDPPEPGSPRISSLRPQGLSNPSTLSAQPQLSRSHSSGSVLPLGELEGRRSTRDRRSPAEPEGGPASEGAARPLPRFNSVPLTDTGHERQSEGSFSPQLQESVFHLLVPSVILVLLAVGGLLFYRWRRRSHQEPQRADSPLEQPEGSPLTQDDRQVELPV
- ERK activation (phosphorylated ERK, Western blot) (ERK1/2): activated
- IL-10 production (ELISA) of LPS-stimulated macrophages in presence of the ERK activator ([1]; LPS plus agent versus LPS alone, CSF-1 100 ng/ml added simultaneously with LPS, IL-10 measured 20 hrs later): induce more IL-10
- IL-10 induction by the agent on its own ([1]; macrophages without inflammatory stimulus): does not induce IL-10 on its own
